The record followed here is patent US4316011A, “Rhodomycin antibiotics” (Sanraku-Ocean Co., Ltd., priority 1979, dated 1982).

The term IC50 denotes the concentration that gives 50% inhibition. In general, LD50 refers to the dose at which mortality reaches 50%.

Converted amounts (≈) assume the structure as drawn. Where two headings read alike, the source gives them in different places.

In data set [1] the test system is DNA synthesis in murine leukemic L 1210 cells. The data set is described as follows: DNA biosynthesis in L 1210 cells (14C-thymidine incorporation). It counts as cell-based. Conditions: Mus musculus, L1210, 15 min with compound then 60 min 14C-thymidine, 37° C. As to the method: (§1) In an example, L 1210 cells were inoculated in RPMI (Rosewell Park Memorial Institute) 1640 medium containing 20% calf serum at the cell density of 5×10^4 cells/ml, and the compound in the present invention was simultaneously added to the medium at the concentration of 0.1 and 0.5 μg/ml and incubated at 37° C. in a CO2 incubator. 50% growth inhibition concentration of the compound over controls was determined. L 1210 cells as described above were also inoculated at 5×10^5 cells in RPMI 1640 medium containing 10% calf serum and incubated at 37° C. for 1 to 2 hours in a CO2 incubator. The cells were cultured for 15 min. at 37° C. after the compounds according to the present invention at various concentrations were added, and then ^14 C-uridine (0.05 μCi/ml) or ^14 C-thymidine (0.05 μCi/ml) was added and incubated for further 60 min. at 37° C. After stopping the pulse-labeling by addition of 10% trichloroacetic acid (TCA) solution to the reaction mixture, acid-insoluble materials were precipitated, washed three times with 5 to 10% TCA, and dissolved in a small amount of formic acid. Then, radioactivity was determined, and inhibitory effects on the DNA and RNA biosynthesis were indicated by the 50% inhibition concentration (IC50) of the incorporation of radioactivity over controls.
For orientation: Uptake of a labelled nucleoside into DNA is a usual measure of proliferation.

The subject of data set [2] is RNA synthesis in murine leukemic L 1210 cells. The data set is described as follows: RNA biosynthesis in L 1210 cells (14C-uridine incorporation). In kind it is cell-based. To be noted: for IC50: Mus musculus, L1210, 15 min with compound then 60 min 14C-uridine, 37° C.; for Inhibition ratio DNA/RNA: ratio of IC50 for DNA synthesis to IC50 for RNA synthesis. On the procedure:
50% growth inhibition concentration of the compound over controls was determined. […] The cells were cultured for 15 min. at 37° C. after the compounds according to the present invention at various concentrations were added, and then ^14 C-uridine (0.05 μCi/ml) or ^14 C-thymidine (0.05 μCi/ml) was added and incubated for further 60 min. at 37° C. After stopping the pulse-labeling by addition of 10% trichloroacetic acid (TCA) solution to the reaction mixture, acid-insoluble materials were precipitated, washed three times with 5 to 10% TCA, and dissolved in a small amount of formic acid.

Another data set concerns L 1210 leukemia. The experiment in a line: Antitumor effect on L 1210 leukemia in mice. It counts as in vivo, mice (CDF1). Conditions: i.p., once daily for 10 days from 24 hours after inoculation of 1×10^6 L 1210 cells i.p. As to the method:
For example, when CDF1 mice weighing 18 to 22 grams were inoculated with 1×10^6 cells of L 1210 cells intraperitoneally and the compound was administered intraperitoneally once daily for 10 days consecutively 24 hours after inoculation, the survival time of mice was over 200% by T/C(%) at optimum dose as shown in the following table.

Data set [3] can be described thus: Acute toxicity in mice, single intravenous injection. To be noted: mouse, in vivo.
Data set [4] deals with murine leukemic L 1210 cells. The experiment in a line: Growth inhibition of L 1210 cells in culture. It counts as cell-based. To be noted: for IC50: Mus musculus; for growth of murine leukemic cells (in words): murine leukemic L 1210 cells in culture. As to the method: as §1
The mark [5] stands for this setting: L1210, L 1210 cells, RPMI 1640, 20% calf serum, 5×10^4 cells/ml, 37° C., read-out: IC50 Growth.

As to `CCC1(O)CC(OC2CC(N(C)C)C(OC3CC(O)C(OC4CCC(=O)C(C)O4)C(C)O3)C(C)O2)c2c(O)c3c(c(O)c2C1C(=O)OC)C(=O)c1c(O)ccc(O)c1C3=O` (stereo not shown) [ε-Isorhodomycin RDC], the IC50 is 1.25 µg/mL (≈ 1.48 µM) in data set [1]; 0.11 µg/mL (≈ 0.13 µM) in data set [2]; 0.007 µg/mL (≈ 0.0083 µM) in data set [4] (L1210, read-out: IC50 Growth). In addition, in data set [2], the “RNA synthesis of L 1210 cells (in words)” value is “inhibited specifically RNA synthesis of L 1210 cells”. The “Inhibition ratio DNA/RNA” value in data set [2] is listed as 11.1. The “T/C (survival time)” value in the data set on L 1210 leukemia (opt. dose 2 mg/kg/day) came to 235%. Further, in data set [3], the LD50 was 28.2 mg/kg. Besides, the “growth of murine leukemic cells (in words)” value (shortened to “growth”) in data set [4] is listed as “suppressed the growth of murine leukemic cells at extremely low concentration”.

In the case of `CCC1(O)CC(OC2CC(N(C)C)C(OC3CC(O)C(OC4CCC(=O)C(C)O4)C(C)O3)C(C)O2)c2c(cc3c(c2O)C(=O)c2c(O)ccc(O)c2C3=O)C1O` (stereo not drawn) [β-Pyrromycin RDC], the results for the IC50 in data set [1], in data set [2] and in data set [4] (setting [5]) were 2 µg/mL (≈ 2.55 µM), 1.5 µg/mL (≈ 1.91 µM) and 1 µg/mL (≈ 1.27 µM), respectively. Further, the “Inhibition ratio DNA/RNA” value in data set [2] was determined as 1.3. The “T/C (survival time)” value in the data set on L 1210 leukemia (opt. dose 20 mg/kg/day) worked out at 202%. The LD50 in data set [3] was 85.5 mg/kg.

Turning to `CCC1(O)CC(OC2CC(N(C)C)C(OC3CC(O)C(OC4CCC(=O)C(C)O4)C(C)O3)C(C)O2)c2c(O)c3c(c(O)c2C1C(=O)OC)C(=O)c1cccc(O)c1C3=O` (stereo not shown) [ε-Rhodomycin RDC], in data set [1], the IC50 was found to be 0.7 µg/mL (≈ 0.846 µM). Besides, in data set [2], the “RNA synthesis of L 1210 cells (in words)” value is “inhibited specifically RNA synthesis of L 1210 cells”, the IC50 stood at 0.08 µg/mL (≈ 0.0966 µM) and the “Inhibition ratio DNA/RNA” value is given as 8.8. The “T/C (survival time)” value with L 1210 leukemia (opt. dose 2 mg/kg/day) is 240%. Further, in data set [3], the LD50 was determined as 32.5 mg/kg. The IC50 in data set [4] (L1210, read-out: IC50 Growth) was found to be 0.01 µg/mL (≈ 0.0121 µM). Also, the “growth” value in data set [4] is reported as “suppressed the growth of murine leukemic cells at extremely low concentration”.

`CCC1(O)CCc2c(O)c3c(c(O)c2C1OC1CC(N(C)C)C(OC2CC(O)C(OC4CCC(=O)C(C)O4)C(C)O2)C(C)O1)C(=O)c1cccc(O)c1C3=O` (stereo not shown) [γ-Rhodomycin RDC]: the values for the IC50 in data set [1], in data set [2] and in data set [4] (setting [5]) were 0.85 µg/mL (≈ 1.1 µM), 0.28 µg/mL (≈ 0.364 µM) and 0.11 µg/mL (≈ 0.143 µM), respectively. In data set [2], the “Inhibition ratio DNA/RNA” value is listed as 3.0. The “T/C (survival time)” value in the data set on L 1210 leukemia (opt. dose 2 mg/kg/day) came out at 209%. In data set [3], this compound yielded an LD50 of 39.8 mg/kg.

`CCC1(O)CC(OC2CC(N(C)C)C(OC3CC(O)C(OC4CCC(=O)C(C)O4)C(C)O3)C(C)O2)c2c(O)c3c(c(O)c2C1O)C(=O)c1cccc(O)c1C3=O` (stereo not drawn) [β-Rhodomycin RDC]: the IC50 amounted to 0.57 µg/mL (≈ 0.725 µM) in data set [1], 0.15 µg/mL (≈ 0.191 µM) in data set [2] and 0.01 µg/mL (≈ 0.0127 µM) in data set [4] (setting [5]). In data set [2], the “Inhibition ratio DNA/RNA” value worked out at 3.8. Further, the “T/C (survival time)” value with L 1210 leukemia (opt. dose 2 mg/kg/day) was 306%. Also, the LD50 in data set [3] was found to be 28 mg/kg. Besides, in data set [4], the “growth” value is recorded as “suppressed the growth of murine leukemic cells at extremely low concentration”.

On to `CCC1(O)CCc2c(O)c3c(c(O)c2C1OC1CC(N(C)C)C(OC2CC(O)C(OC4CCC(O)C(C)O4)C(C)O2)C(C)O1)C(=O)c1cccc(O)c1C3=O` (stereo not shown) [γ-Rhodomycin RDRs], for which the values for the IC50 in data set [1], in data set [2] and in data set [4] (setting [5]) were 0.7 µg/mL (≈ 0.907 µM), 0.3 µg/mL (≈ 0.389 µM) and 0.09 µg/mL (≈ 0.117 µM), respectively. Besides, the “Inhibition ratio DNA/RNA” value in data set [2] is given as 2.3. In addition, in the data set with L 1210 leukemia (opt. dose 2 mg/kg/day), the “T/C (survival time)” value is on record as 203%. Moreover, in data set [3], the LD50 stood at 40.6 mg/kg.

As for `COc1cccc2c1C(=O)c1c(O)c3c(c(O)c1C2=O)C[C@@](O)(C(=O)CO)C[C@@H]3O[C@H]1C[C@H](N)[C@H](O)[C@H](C)O1` [Adriamycin, reference compound], the “T/C (survival time)” value in the data set on L 1210 leukemia (opt. dose 1 mg/kg/day) was 286%. In data set [3], this compound registered an LD50 of 14.2 mg/kg.
